Test results taken from patent US20240297323A1, “BIOBASED AQUEOUS ORGANIC-BASED ELECTROLYTE IN AQUEOUS ORGANIC REDOX FLOW BATTERY” (KEMIWATT, priority 2021, published 2024).
In brackets after ≈: the same amount, converted by molar mass. Where two headings read alike, the source gives them in different places.

Columns and labels:
[1] = redox-active molecules used in negolytes in ARFBs; cited from earlier work
[2] = Electrochemical properties at diluted state (cyclic voltammetry, RDE linear sweep voltammetry); format: physicochemical; conditions: for k^0′O × 10^−2 apparent heterogeneous rate constant: Gileadi's equation, transfer coefficient 0.5; for E1/2 half-wave potential: LSV with RDE, 400 up to 1 000 RPM, pH 14; for DO × 10^−6 diffusion coefficient: Randles-Sevcik, scan rates 10 mV/s up to 20 V/s; for Peak-to-peak separation ΔEp at pH 14: pH 14 (KOH 1 M), 5.10^−3 M, scan rate 100 mV·s^−1, third cycle
Description: Cyclic voltammetry experiments were performed at a 100 mV/s scan rate for compounds A, B and B-M3CH in a solution at pH 14 (KOH 1 M).
The electrochemical experiments were conducted on an electrochemical working station (BioLogic Science Instruments VSP) at 25° C. using a three-electrodes electrochemical cell, where a Pt wire was employed at the counter electrode (CE), an Ag/AgCl/KCl saturated electrode immerged in a 1 M KOH solution protected from the cell by a porous frit glass served as the reference electrode (RE) and a rotating disc electrode (RDE) mounted with a glassy carbon (GC, 7.069 mm^2) disk was used as the working electrode (WE), respectively. The potential was reported relative to the normal hydrogen electrode (NHE), which was converted from the Ag/AgCl reference electrode (0.230 V versus NHE). The ohmic drop between the WE and RE is determined by current interrupt experiments and leads to a value close to 0.7069 Ω·cm^2. All cyclic voltammetry experiments were conducted by alleviating most of this resistance (85%) using the potentiostat manual ohmic drop compensation. Before each electrochemical measurement, the GC disk electrode was polished using SiC P4000 foil.
Each recorded cyclic voltammetry of the reduction and the oxidation process of a compound at a given scan rate is analyzed by measuring ip,a=anodic peak current; ip,c=cathodic peak current; v=scan rate; Ep,a=anodic peak potential; Ep,c=cathodic peak potential; ΔEp=Ep,a−Ep,c; the apparent standard redox potential E^0′=[…].
Linear sweep voltammetry (LSV) using the RDE at various rotation speed (400 up to 1 000 RPM) were performed to determine the averaged half-wave potential E1/2.
The oxidation (DO) and the reduction (DR) diffusion coefficients were calculated using Randles-Sevcik (RS) equation ip=0.4463.n^3/2.F^3/2.A.C.v^1/2.D^1/2.R^−1/2.T^−1/2=Cte.v^1/2.D^1/2, n=number of electrons exchanged during the redox process; F=faradaic number=96485 C·mol^−1; A=electrode active surface; C=redox active molecule concentration; R=gas constant=8.314 J·K^−1·mol^−1; T=bulk temperature=299 K. The experiments are conducted by cyclic voltammetry at various scan rates ranging from 10 mV/s up to 20 V/s.
A graphic of |ip,a| and |ip,c|=f(Cte.v^1/2) is plotted, if the redox process is reversible and diffusion controlled, the peak current should be proportional to the square root of the scan rate. The diffusion coefficients (oxidation and reduction) are then calculated by taking the square of the regression lines slopes. Diffusion coefficients (oxidation and reduction processes) are evaluated by plotting the peak current versus a constant multiplied by the square root of the scan rate. The plots regression line gives a straight line with perfect correlation coefficient (100%) confirming that the redox process is reversible and diffusion controlled. The square of each slope gives the associated coefficient diffusion in cm^2·s^−1.
The apparent heterogeneous rate constant during reduction (k^0′O) process was calculated using Gileadi's equation (C. Russel, W. Jaenicke, Electrochimica Acta, Vol 27, No. 12, 1745-1750, 1982) log k^0′=−0.48.α+0.52+log[(n.F.α.vc.D)/(2.303.R.T)]^1/2; vc is the critical scan rate, it is calculated by plotting the peak potentials versus the logarithm of the scan rates, and is more precise when a very wide range of scan rates is used, which is the case here (0.010 up to 20 V·s^−1), it is determined at the x-axis of the point of intersection of the regression lines drawn at low and high scan rates; a is the transfer coefficient that is supposed to be close to 0.5 for all presented compounds.
Peak-to-peak separation ΔEp values were determined from the third cycle of each cyclic voltammogram and are gathered in the following table 2.
The standard redox process reversibility evaluation is performed in diluted state, at 5 mM of concentration, at pH 14 buffered with 1 M of KOH. […]

[3] = Water solubility by shake-flask method in alkaline aqueous solution; format: physicochemical; conditions: for solubility: aqueous buffer, thermodynamic from solid
Description: The solubility of the compounds was evaluated in aqueous solution at various pH by shake-flask method. An aqueous solution (containing either KOH 1 M, NaOH 1 M, or a mixture of KOH 0.5 M and NaOH 0.5 M) is added over 100 mg of compound by 20 μL portions until complete solubilization. We obtain an approximate range of solubility values calculated as following:
Smax˜(m/M)/V; m=mass of evaluated compound(g);M=molar mass of evaluated compound(g·mol^−1);V=added volume(L).

[4] = Post-cycling analyses of the negolyte (cyclic voltammetry and 1H NMR before and after cycling); format: physicochemical; conditions: for chemical stability in the application: conclusion from cycling and post-cycling analyses; for degradation during the cycling test (1H NMR in D2O before/after): negolyte after cycling
Description: FIG. 3: Cyclic voltammetry (3rd cycle) of the negolyte (black line) before the cycling test and (grey line) after cycling test, recorded at a scan rate of 100 mV·s^−1.
FIG. 4: ^1H NMR spectra of the negolyte, recorded in D2O between 0 and 10 ppm, (black line) before and (grey line) after the cycling test.
A preliminary electrochemical test was performed on the negolyte before and after the cycling test (FIG. 3).
Further analyses were performed using ^1H NMR spectroscopy, see FIG. 4.
A preliminary electrochemical test was performed on the negolyte before and after thousands of cycles and a few months of cycling test (FIG. 7).
Further analyses were performed using ^1H NMR spectroscopy, see FIG. 8.
A preliminary electrochemical test was performed on the negolyte before and after the cycling test (FIG. 10) which lasted for more than 1000 cycles, or 25 days of constant cycling.
Further analyses were performed using ^1H NMR spectroscopy, see FIG. 11.

[5] = aqueous KOH 1 M solution, aqueous KOH 1 M, shake-flask, approximate, read-out: solubility estimated, KOH (1M)
[6] = aqueous NaOH 1 M solution, aqueous NaOH 1 M, shake-flask, approximate, read-out: solubility estimated, NaOH (1M)
[7] = aqueous alkaline solution, aqueous alkaline environment, read-out: solubility in aqueous alkaline environment
[8] = aqueous mixture of KOH 0.5 M and NaOH 0.5 M, mixture of KOH 0.5 M and NaOH 0.5 M, shake-flask, approximate, read-out: solubility estimated, KOH 0.5M + NaOH 0.5M

## O=C1c2ccc(S(=O)(=O)O)cc2C(=O)c2cc(S(=O)(=O)O)ccc21 [AQ-2,7-DS]
[1]
  DO × 10^−6: 3.8 × 10^−6 cm^2/s
  k^0′O × 10^−2: 0.72 × 10^−2 cm/s

## C[N+](C)(C)CCC[n+]1ccc(-c2cc[n+](CCC[N+](C)(C)C)cc2)cc1.[Cl-].[Cl-].[Cl-].[Cl-] [BTMAP-Vi]
[1]
  DO × 10^−6: 3.3 × 10^−6 cm^2/s
  k^0′O × 10^−2: 2.2 × 10^−2 cm/s

## Cc1c(C(=O)O)c(O)cc2c1C(=O)c1c(O)cccc1C2=O [Compound A]
[2]
  k^0′O × 10^−2 apparent heterogeneous rate constant: 0.78 × 10^−2 cm/s
  E1/2 half-wave potential: −0.59 V vs NHE
  DO × 10^−6 diffusion coefficient: 3.65 × 10^−6 cm^2/s
  Peak-to-peak separation ΔEp at pH 14: 56 mV
[3]; [5]
  solubility: 480 mM (≈ 143 mg/mL)
[3]; [6]
  solubility: 320 mM (≈ 95.4 mg/mL)
[3]; [7]
  solubility: > 300 mM
[3]; [8]
  solubility: 490 mM
[4]; after cycling
  oxidation not originally present in the negolyte: −0.57 V vs Ag/AgCl
[4]
  chemical stability in the application: low chemical stability
  degradation during the cycling test (1H NMR in D2O before/after): degraded into multiple compounds

## Cc1cc(O)cc2c1C(=O)c1c(O)cccc1C2=O [Compound B, 3,8-dihydroxy-1-methylanthracene-9,10-dione]
[2]
  k^0′O × 10^−2 apparent heterogeneous rate constant: 0.80 × 10^−2 cm/s
  E1/2 half-wave potential: −0.57 V vs NHE
  DO × 10^−6 diffusion coefficient: 2.99 × 10^−6 cm^2/s
  Peak-to-peak separation ΔEp at pH 14: 40 mV
[3]; [5]
  solubility: 580 mM (≈ 147 mg/mL)
[3]; [6]
  solubility: 500 mM (≈ 127 mg/mL)
[3]; [7]
  solubility: > 300 mM
[3]; [8]
  solubility: 630 mM
[4]; after thousands of cycles and a few months, ascribed to osmosis dilution
  decrease of redox signature current intensity after cycling: 30-35%
[4]
  degradation during the cycling test (1H NMR in D2O before/after): does not undergo any degradation

## Cc1cc(OCCCC(=O)O)cc2c1C(=O)c1c(O)cccc1C2=O [Compound B-M3CH, 4-((5-hydroxy-4-methyl-9,10-dioxo-9,10-dihydroanthracen-2-yl)oxy)butanoic acid]
[2]
  k^0′O × 10^−2 apparent heterogeneous rate constant: 2.47 × 10^−2 cm/s
  E1/2 half-wave potential: −0.49 V vs NHE
  DO × 10^−6 diffusion coefficient: 4.58 × 10^−6 cm^2/s
  Peak-to-peak separation ΔEp at pH 14: 30 mV
[3]; aqueous KOH 1 M or NaOH 1 M solution, KOH 1 M or NaOH 1 M, read-out: solubility in ionic environment containing one type of alkaline cation
  solubility: ~150 mM (≈ 51 mg/mL)
[3]; [5]
  solubility: 150 mM (≈ 51 mg/mL)
[3]; [6]
  solubility: 150 mM (≈ 51 mg/mL)
[3]; [8]
  solubility: ~430 mM
[3]; mixture of KOH 0.5 M and NaOH 0.5 M, shake-flask, approximate
  solubility estimated, KOH 0.5M + NaOH 0.5M: 430 mM
[4]; after more than 1000 cycles, 25 days, ascribed to osmosis concentration
  increase of redox signature current intensity after cycling: about 30%
[4]
  chemical stability in the application: increased its stability
  degradation during the cycling test (1H NMR in D2O before/after): does not undergo any degradation

## O=C(O)CCCOc1ccc2c(c1)C(=O)c1ccc(OCCCC(=O)O)cc1C2=O [DBEAQ]
[1]
  DO × 10^−6: 1.58 × 10^−6 cm^2/s
  k^0′O × 10^−2: 0.70 × 10^−2 cm/s

## O=C1c2ccc(O)cc2C(=O)c2ccc(O)cc21 [DHAQ]
[1]
  DO × 10^−6: 4.8 × 10^−6 cm^2/s
  k^0′O × 10^−2: 0.70 × 10^−2 cm/s

## O=C1C=C(O)C(=O)C=C1O [DHBQ]
[1]
  DO × 10^−6: 3.66 × 10^−6 cm^2/s
  k^0′O × 10^−2: 0.21 × 10^−2 cm/s

## O=C1c2ccc(OCCCP(=O)(O)O)cc2C(=O)c2ccc(OCCCP(=O)(O)O)cc21 [DPPEAQ]
[1]
  DO × 10^−6: 1.37 × 10^−6 cm^2/s

## Cc1cc2nc3c(=O)[nH]c(=O)nc-3n(C[C@H](O)[C@H](O)[C@H](O)COP(=O)([O-])O)c2cc1C.[Na+] [Flavine FMN-Na]
[1]
  DO × 10^−6: 1.3 × 10^−6 cm^2/s
  k^0′O × 10^−2: 0.53 × 10^−2 cm/s
